In US20030100109A1, “Methods and compositions for in vitro germination and propagation of polygonatum cirrhifolium royle” (priority 2001, published 2003):
Where “and” joins values, the source holds several entries; their conditions need not be identical. Identical values can stand only once.

Assays:
[1] = test system: Polygonatum cirrhifolium Royle seeds; assay: Induction of germination (hypocotyl emergence) on modified MS medium with GA3 at 30° C. in dark; type: in vivo; conditions: modified MS culture medium; for Percent germination: mean ± S.E.
Experimental: Ripe purplish berries from plants grown in the wild were collected and dehydrated for 15 days at room temperature (29° C.±2° C.). Seeds were collected from dehydrated berries and washed in tap water with 1-2 drops of Tween-20™ for 2 hours and rinsed three times in distilled water. Seeds were then surface sterilized with 0.1% mercuric chloride (HgCl2) for 3 minutes. Mercuric chloride was removed by washing seeds four times in sterile distilled water. Sterilized, rinsed seeds were placed on semi-solid culture medium in sterile disposable plastic Petri plates (10 cm×2 cm). Macro and micro nutrients in the basal medium were that of Murashige and Skoog's (Murashige, T. and Skoog, F. […]. Physiol Plant 15: 433 -497) but modified to contain 2.2 g/L NH4NO3, 2.0 g/L KNO3, 0.44 g/l CaCl2.2H2O, 0.37 g/L MgSO4.7H20, 0.17 g/L KH2PO4, 37.25 mg/L Na2 EDTA, 27.8 mg/L FeSO4.7H20, 0.83 mg/L KI, 6.2 mg/L H3BO3, 22.3 mg/L MnSO4.4H20, 8.6 mg/L ZnSO4.7H20, 0.25 mg/L Na2 MoO4.2H20, 0.025 mg/L CuSO4.5H2O, 0.025 mg/L CoCl2.6H20. This medium was supplemented with 250 mg/L myo-inosital, 0.5 mgl/l nicotinic acid, 0.5 mg/L pyridoxine HCl, 3 mg/L thiamine HCl, 2 mg/L glycine, 30 g/L sucrose, 7.5 g/L agar and 2, 10, 25, and 50 mg/L gibberellic acid. The pH of the medium was adjusted to 5.8 before adding agar. Medium was sterilized at 121° C. (15 lb. psi pressure) for 20 minutes. […] Seeds with emerged hypocotyl were transferred under aseptic conditions to the above defined basal culture medium containing gibberellic acid at 5, 25, 50 and 100 mg/L. Transferred plants were incubated in an environment having 8-16-hr days under about 2000 lux of light and about 8-16-hr nights in total darkness at a constant temperature of 20° C. ([…]) and at 50-60% RH. Illumination was provided by 40-watt cool, white fluorescent tubes. Germination synchronization as indicated by differentiated epicotyl with emergent coleoptile and radicle was recorded on daily basis. Tables 1 and 2 show the induction of germination as indicated by the emergence of hypocotyl at temperature of 30° C. (±2° C.; dark; RH 50-60%) and diurnal temperature of 30/20° C. (±2° C.; dark; RH 50-60%). Experiment consisted of 4 treatments in the form of varying levels of GA3 (2, 10, 25 and 50 mg/L) supplemented to culture medium consisting of 2.2 g/L NH4NO3, 2.0 g/L KNO3, 0.44 g/l CaCl2.2H2O, 0.37 g/L MgSO4.7H20, 0.17 g/L KH2PO4, 37.25 mg/L Na2 EDTA, 27.8 mg/L FeSO4.7H20, 0.83 mg/L KI, 6.2 mg/L H3BO3, 22.3 mg/L MnSO4.4H20, 8.6 mg/L ZnSO4.7H20, 0.25 mg/L Na2 MoO4.2H20, 0.025 mg/L CuSO4.5H2O, 0.025 mg/L CoCl2.6H20, 250 mg/L myo-inositol, 0.5 mg/L nicotinic acid, 0.5 mg/L pyridoxine HCl, 3 mg/L thiamine HCl, 2 mg/L glycine, 30 g/L sucrose and 7.5 g/L agar. Each treatment consisted of 15 replicates with 5 seeds in each. These were incubated at a constant temperature of 30° C. under continuous darkness at a RH of 60%. With the increase in GA3 concentration, there is concomitant increase in germination (Table 1). Maximum germination of 98.53% was obtained at 25 mg/L of GA3. Germination extended from 24-61 days (maximum duration) at 2 mg/L of GA3 and 7-23 days (minimum duration) at 50 mg/L of GA3 respectively.

[2] = test system: Polygonatum cirrhifolium Royle seeds with emerged hypocotyl; assay: Synchronization of germination: release of epicotyl, coleoptile and radicle from seeds with emerged hypocotyl; type: in vivo; conditions: modified MS culture medium, 20° C., 16 hr photoperiod
Experimental: Germination was evaluated every three days by examining seeds for hypocotyl emergence. […] Seeds with emerged hypocotyl were transferred under aseptic conditions to the above defined basal culture medium containing gibberellic acid at 5, 25, 50 and 100 mg/L. Transferred plants were incubated in an environment having 8-16-hr days under about 2000 lux of light and about 8-16-hr nights in total darkness at a constant temperature of 20° C. ([…]) and at 50-60% RH. Illumination was provided by 40-watt cool, white fluorescent tubes. Germination synchronization as indicated by differentiated epicotyl with emergent coleoptile and radicle was recorded on daily basis. The consequent step of synchronization of germination is presented in table 3 in which epicotyl with emergent coleoptile and radicle is manifest under 8-16 hr photoperiod (light intensity 2000-3500 lux) at an incubation temperature of 20° C. (RH 50-60%). In this experiment seeds with emerged hypocotyl were transferred to the culture to modified MS basal culture medium containing of 2.2 g/L NH4NO3, 2.0 g/L KNO3, 0.44 g/l CaCl2.2H2P, 0.37 g/L MgSO4.7H20, 0.17 g/L KH2PO4, 37.25 mg/L Na2 EDTA, 27.8 mg/L FeSO4.7H20, 0.83 mg/L KI, 6.2 mg/L H3BO3, 22.3 mg/L MnSO4.4H20, 8.6 mg/L ZnSO4.7H20, 0.25 mg/L Na2MoO4.2H20, 0.025 mg/L CuSO4.5H2O, 0.025 mg/L CoCl2.6H20, 250 mg/L myo-inositol, 0.5 mg/L nicotinic acid, 0.5 mg/L pyridoxine HCl, 3 mg/L thiamine HCl, 2 mg/L glycine, 30 g/L sucrose and 7.5 g/L agar and supplemented with 4 concentrations of GA3 viz. […], 25, 50 and 100 mg/L. Cultures were incubated at 20° C. under 16 hr photoperiod in a growth chamber. there were four treatments in total and each treatment consisted of 15 replicates with 4 seeds with emerged hypocotyl in each replicate. The effect of various treatments on the release of epicotyl, coleoptile radicle and days to release/synchronization is described in table 3.100 mg/L of GA3 results in 100% synchronization after 11 days of culture.

Q: With C=C1C[C@]23C[C@@]1(O)CC[C@H]2[C@@]12C=C[C@H](O)[C@@](C)(C(=O)O1)[C@H]2[C@@H]3C(=O)O [GA3, gibberellic acid] as the compound, how does the Duration of germination ([1]; GA3 2 mg/L) read?
A: The Duration of germination was 24 to 61 days.

Q: And the Percent germination ([1]; GA3 2 mg/L)?
A: The Percent germination was 23.69 ± 7.04 %.

Q: And the Duration of germination ([1]; GA3 10 mg/L)?
A: Its Duration of germination is 19 to 53 days.

Q: What about the Percent germination ([1]; GA3 10 mg/L) of the same compound?
A: Its Percent germination is 66.18 ± 4.77%.

Q: And the Duration of germination ([1]; GA3 25 mg/L)?
A: The Duration of germination was 11 to 30 days.

Q: What about the Percent germination ([1]; GA3 25 mg/L) of the same compound?
A: Its Percent germination is 98.53% and 98.53 ± 3.82%.

Q: And the Duration of germination ([1]; GA3 50 mg/L)?
A: Its Duration of germination is 7 to 23 days.

Q: What about the Percent germination ([1]; GA3 50 mg/L) of the same compound?
A: The Percent germination was 97.11 ± 4.01%.

Q: What about the “Days to release epicotyl, coleoptile & radicle” value (from here on “Days to release epicotyl”) ([2]; GA3 10 mg/L) of the same compound?
A: Its value is 21 days.

Q: And the “Percent seeds with epicotyl, coleoptile & radicle” value (from here on “Percent seeds with epicotyl”) ([2]; GA3 10 mg/L)?
A: The value was 23.71 ± 2.00%.

Q: What about the “Days to release epicotyl” value ([2]; GA3 25 mg/L) of the same compound?
A: The value was 18 days.

Q: What about the “Percent seeds with epicotyl” value ([2]; GA3 25 mg/L) of the same compound?
A: Its value is 78.23 ± 3.11%.

Q: And the “Days to release epicotyl” value ([2]; GA3 50 mg/L)?
A: Its value is 14 days.

Q: And the “Percent seeds with epicotyl” value ([2]; GA3 50 mg/L)?
A: Its value is 100.00 ± 0.00%.

Q: What about the “Days to release epicotyl” value ([2]; GA3 100 mg/L) of the same compound?
A: Its value is 11 days.

Q: What about the “Percent seeds with epicotyl” value ([2]; GA3 100 mg/L) of the same compound?
A: Its value is 100% and 100.00 ± 0.00%.
